Measured values: patent publication US9023814B2, “Glycomimetic compounds as anti-infectious against pathogens lectins” (priority 2010, dated 2015)

Experiments:
LecA [1] = target: T1, LecA (Pseudomonas aeruginosa, UniProt Q05097); test: Inhibition of Hemagglutination (HIA), LecA-induced agglutination of rabbit erythrocytes; format: cell-based; conditions: LecA 6 μg/mL, 25° C.
Procedure: Inhibition of Hemagglutination (IHA) (or Hemagglutination Inhibition Assays (HIA)).
The LecA lectin agglutinates red blood cells since they are covered by glycoconjugates. The glycomimetics inhibit this agglutination.
For each compound the minimum concentration able to perform inhibition has been evaluated. The method is not very quantitative but mimics natural system.
More particularly, hemagglutination inhibition assays were performed in U-shaped 96-well microtitre plates. Rabbit erythrocytes were bought from Biomerieux and used without further washing. The erythrocytes were diluted to a 4% solution in NaCl (150 mM). Lectin solutions of 2 mg/mL were prepared in Tris/HCl 20 mM, NaCl 100 mM and CaCl2 100 μM. The hemagglutination unit (HU) was first obtained by the addition of 25 μL of the 4% erythrocyte solution to 25 μL aliquots of sequential (two-fold) lectin dilutions. The mixture was incubated at 25° C. for 60 minutes. The HU was measured as the minimum lectin concentration required to […] hemagglutination. For the following lectin-inhibition assays, lectin concentrations of four times that of the hemagglutination unit were used, i.e. a concentration of 6 μg/mL for LecA. Subsequent assays were then carried out by the addition of 12.5 μL lectin solution (at the required concentration) to 25 μL of sequential dilutions of glycoclusters, monomer molecules and controls. These solutions were then incubated at 25° C. for 2 h then 12.5 μL of 4% erythrocyte solution was added followed by an additional incubation at 25° C. for 30 minutes. The minimum inhibitory concentration for each molecule was determined by simple eye detection.
Compounds 5, 10, 14, 19, 21, 23, 25, 27, 29 and 31 were evaluated towards LecA according to Method 1.

P. aeruginosa = test: Mice model of lung infection, alveolar capillary barrier permeability (125I-albumin); format: in vivo; conditions: co-instillation into lungs with P. aeruginosa, 6 h after infection
Procedure: Mice were briefly anesthetized with inhaled sevoflurane. For each mouse, 50 l of a bacterial inoculum of 5×10^8 CFU/ml was instilled into the lungs through a gavage inserted into trachea via the oropharynx. The alveolar capillary barrier permeability was evaluated by measuring residual ^125I-albumin instilled intratracheally as an alveolar protein tracer in the lungs and its leakage and accumulation in the plasma aftert 6 h after infection. The intratracheal instillate was a mixture of 1 μCi of ^125I-labeled albumin and 5% bovine albumin together with the P. aeruginosa inoculate and different monosaccharides or glycocompounds. The total radioactivity in the instillate was measured. Fifty microliters of instillate was inoculated into the lungs of each anesthetized mouse. […] The blood was collected by carotid arterial puncture, and a sternotomy was performed to harvest and measure the radioactivity in the lungs, trachea, and stomach. The quantity of 125l-albumin that leaked into the circulation was calculated by multiplying the activity in a blood sample by the volume of blood.
Compound 14 has been compared with two monosaccharides: glucose and galactose, in animal models assays. […] For this, labelled albumin was […] was estimated. […]

LecA [2] = target: T1, LecA; test: Enzyme-Linked Lectin Assay (ELLA), biotinylated LecA binding to polymeric galactose
Procedure: Enzyme-Linked Lectin Assay (ELLA) Experiments 96-well plates are covered with polymer presenting galactose (which is the monosaccharide that is bound by LecA). The lectin labelled with biotin is added in presence of competing glycomimetics. IC50 can be measured.
More particularly, ELLA experiments were conducted using 96-well microtitre plates (Nunc Maxisorb) coated with polymeric β-D-galactose (5 μg/mL; Lectinity Holding, Inc., Moscow) diluted in carbonate buffer, pH 9.6 (100 μL) for 1 h at 37° C. After blocking at 37° C. for 1 h with 100 μL per well of 3% (w/v) BSA in PBS, plates were incubated at 37° C. for 1 h with 100 μL of biotinylated LecA at 0.1 μg/mL in the presence of serial dilutions of inhibitors. After washing with T-PBS (PBS containing 0.05% Tween), 100 μL of streptavidinperoxidase conjugate (dilution 1:10000; Boehringer-Mannheim) was added and left for 1 h at 37° C. The color was developed using 100 μL per well of 0.05 M phosphate/citrate buffer containing O-phenylenediamine dihydrochloride (0.4 mg/mL) and urea hydrogen peroxide (0.4 mg/mL) (Sigma-Aldrich). The reaction was stopped by the addition of 50 μL of 30% H2SO4. Absorbance was read at 490 nm using a microtitre plate reader (Bio-Rad; model 680).

LecA [3] = target: T1, LecA; test: biochemical; format: binding
Procedure: Surface Plasmon Resonance (SPR).
Equivalent method, but performed in miniaturized channel on a galactose-containing chips in a more sophisticated apparatus (Biacore 3000) that allows for a precise determination of the IC50.
More particularly, SPR inhibition experiments were performed on a Biacore 3000 instrument at 25° C. Measurements were carried out on 2 channels with 2 immobilised sugars: α-L-fucose (channel 1), α-D-galactose (channel 2). Immobilization of sugars was performed at 25° C. using running buffer (HBS) at 5 μL/min. Immobilization on each channel (CM5 Chip) was performed independently as follows. First, channel was activated by injecting a fresh mixture of EDC/NHS (35 μL, 420 s). Then, a solution of strepatavidin (100 μg/mL in Na acetate pH 5 buffer) was injected (50 μL, 600 s). Remaining reactive species were quenched by injecting ethanolamine (1M, 35 μL, 420 s). Finally a solution of the desired biotinylated-polyacrylamide-sugar (Lectinity, 200 μg/mL) was coated onto the surface (50 μL, 600 s) through streptavidin-biotin interaction. This procedure led to 804 RU (fucoside) and 796 RU (galactoside) of immobilized sugars on channel 1 and 2 respectively. Inhibition experiments were performed with the galactosylated channel 2 and plots represent subtracted data (channel 2-channel 1).
LecA was injected using running buffer consisting of HEPES 10 mM, NaCl 150 mM, CaCl2 10 mM, Tween P20 0.005%, pH 7.4. Inhibition studies consisted in the injection (150 μL, 10 μL/min, dissociation: 120 s) of incubated (>1 h, r.t.) mixtures of LecA (5 μM) and various concentrations of inhibitor (2-fold cascade dilutions). For each inhibition assay, LecA (5 μM) without inhibitor was injected to observe the full adhesion of the lectin onto the sugar-coated surface (0% inhibition). The CM5 chip was fully regenerated by successive injections of D-Galactose (2×30 μL, 100 mM in running buffer).
Binding was measured as RU over time after blank subtraction, and data were then evaluated using the BIAevaluation Software, version 4.1. For IC50 evaluation, the response (Req-fitted) was considered as the amount of lectin bound to the sugar surface at equilibrium in the presence of a defined concentration of inhibitor. Inhibition curves were obtained by plotting the percentage of inhibition against the inhibitor concentration (on a logarithmic scale) by using Origin 7.0 software (OriginLab Corp.) and IC50 values were extracted from sigmoidal fit of the inhibition curve.

LecA [4] = target: T1, LecA; test: biochemical; format: binding; remark: listed apart in the source
Procedure: Isothermal Titration Microcalorimetry (ITC).
The method allows for a direct measurement of the affinity between the glycomimetics and the LecA lectin. The dissociation constant is measured.
More particularly, recombinant lyophilized LecA was dissolved in buffer (0.1 M TrisHCl, 6 μM CaCl2, pH 7.5) and degassed (see Supp. Info. for concentration details). Protein concentration was checked by measurement of optical density using a theoretical molar extinction coefficient of 28000. Carbohydrate ligands were dissolved directly into the same buffer, degassed, and placed in the injection syringe. ITC was performed with a VP-ITC MicroCalorimeter from MicroCal Incorporated. PA-IL was placed into the 1.4478-mL sample cell, at 25° C. Titration was performed with 10-μL injections of carbohydrate ligands every 300 s. Data were fitted with MicroCal Origin 7 software, according to standard procedures. Fitted data yielded the stoichiometry (n), the association constant (Ka) and the enthalpy of binding (ΔH).
Other thermodynamic parameters (i.e. changes in free energy, ΔG, and entropy, ΔS) were calculated from the equation: ΔG=ΔH TΔS=−RT Inka where T is the absolute temperature and R=8.314 J·mol^−1·K^−1. Two or three independent titrations were performed for each ligand tested.

T1 sequence (Q05097 whole entry): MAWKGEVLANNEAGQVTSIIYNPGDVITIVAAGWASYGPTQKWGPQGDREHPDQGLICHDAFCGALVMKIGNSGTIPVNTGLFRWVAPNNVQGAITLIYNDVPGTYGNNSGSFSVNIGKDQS

Question: What does the source list for `O=C(Cn1cc(CO)nn1)Nc1ccc(O[C@@H]2O[C@H](CO)[C@H](O)[C@H](O)[C@H]2O)cc1` [Comp. 14, 4-[(1,2,3-Triazol-4-hydroxymethyl-1-yl)-acetamido]phenyl β-D-galactopyranoside]?
Answer: inhibiting concentrations of lectin-induced red cells agglutination (minimum inhibitory concentration) (LecA [1]): 250 µM; reduction of lung damages (alveolar barrier permeability) versus bacteria without sugar (P. aeruginosa): approximately 50%; IC50 (LecA [2]): 46 µM; IC50 (LecA [3]): 2.6 µM; Kd (LecA [4]): 5.8 µM
